Test results: patent US6620790B2, “Isolated arachidonic acid-binding heteromer and its use in cosmetics and pharmaceutics” (Societe L'Oreal S.A., priority 1909, dated 2003)

T1: arachidonic acid-binding heteromer (non-covalent complex of two MRP8 sub-units, SEQ ID NOs: 1-2, and one MRP14 sub-unit, SEQ ID NOs: 3-4; approx. 34 kDa), isola (Homo sapiens, UniProt P05109+P06702)
T1 construct: conventional steps of protein extraction from biological tissues, more specifically from skin tissues; from tissue; host or cells: psoriasis scales (human keratinocytes), membrane pellet extracted with KCl buffer
T1 sequence (P05109 1-93) 1: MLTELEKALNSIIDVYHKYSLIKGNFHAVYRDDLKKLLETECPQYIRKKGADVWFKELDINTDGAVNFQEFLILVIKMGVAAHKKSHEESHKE
T1 sequence (P05109 1-93) 2: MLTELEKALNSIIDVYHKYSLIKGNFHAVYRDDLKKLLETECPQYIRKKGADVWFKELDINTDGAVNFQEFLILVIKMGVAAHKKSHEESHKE
T1 sequence (P06702 2-114 limits assumed): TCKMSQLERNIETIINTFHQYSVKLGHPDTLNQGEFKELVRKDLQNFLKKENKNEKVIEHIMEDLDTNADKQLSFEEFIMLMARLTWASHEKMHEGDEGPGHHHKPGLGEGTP

T2: arachidonic acid-binding heteromer (non-covalent complex of two MRP8 sub-units, SEQ ID NOs: 1-2, and one MRP14 sub-unit, SEQ ID NOs: 3-4) (Homo sapiens, UniProt P05109+P06702)
T2 construct: no tag
T2 sequence (P05109 1-93): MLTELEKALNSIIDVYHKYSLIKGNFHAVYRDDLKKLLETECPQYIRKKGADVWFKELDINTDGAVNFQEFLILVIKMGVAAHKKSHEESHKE
T2 sequence (P06702 1-114): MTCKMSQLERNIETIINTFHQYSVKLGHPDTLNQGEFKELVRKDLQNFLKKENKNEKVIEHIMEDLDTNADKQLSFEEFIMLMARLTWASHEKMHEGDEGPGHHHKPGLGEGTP

T3: MRP14 (migration inhibitory factor related protein 14) (human, UniProt P06702 1-114)
T3 construct: Sub-unit of the heteromer, seen by SDS-PAGE of the purified native complex; also called MRP14 sub-unit
T3 sequence: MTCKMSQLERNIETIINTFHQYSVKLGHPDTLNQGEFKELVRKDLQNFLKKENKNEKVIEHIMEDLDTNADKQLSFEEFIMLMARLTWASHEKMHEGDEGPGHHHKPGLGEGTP


Key:
[1] = molecular target: T1, arachidonic acid-binding heteromer (non-covalent complex of two MRP8 sub-units, SEQ ID NOs: 1-2, and one MRP14 sub-unit, SEQ ID NOs: 3-4; approx. 34 kDa), isola; experiment: binding of radiolabelled ligand to heteromer by gel filtration (Superose 12, HPLC)
Protocol: Indeed, when a determined quantity of heteromer in solution is incubated in the presence of 600 nM of radiolabelled arachidonic acid, then analyzed through a filtration column over gel [(Superose 12) balanced with a Tris/HCl buffer containing 0.2M NaCl and connected to a HPLC], the radioactive peak that co-elutes elutes at 34 kDa and corresponds to the radiolabelled arachidonic acid-heteromer complex is 1.5 times greater than if the experiment were performed in the same conditions, but with 600 nM of radiolabelled oleic acid.
(§1) More particularly, this heteromer consists of two MRP8 sub-units and one MRP14 sub-unit. These two proteins, MRP8 and MRP14, are in particular described in the Odink et al., (1987) Nature 330, 80-82 publication.
The purification process of the heteromer that is implemented consists specifically of the following steps: approximately 5 g of psoriasis scales are homogenized in 15 ml of Tris/HCl buffer using a homogenizer (Polytron) then, the mixture is centrifuged at 100000 g for 1 hour at 4° C. The pellet is collected and suspended in 5 ml of the same buffer and centrifuged at 10000 g. The supernatant is eliminated. This washing operation is carried out two more times. […]

[2] = test system: E-FABP (epidermal fatty acid-binding protein) of keratinocytes; details: Siegenthaler, G. et al. (1994) Biochem. J. 302, 363-371; cited from earlier work
[3] = molecular target: T2, arachidonic acid-binding heteromer (non-covalent complex of two MRP8 sub-units, SEQ ID NOs: 1-2, and one MRP14 sub-unit, SEQ ID NOs: 3-4); experiment: binding of linoleic acid to the heteromer (method not given)
[4] = molecular target: T1, arachidonic acid-binding heteromer (non-covalent complex of two MRP8 sub-units, SEQ ID NOs: 1-2, and one MRP14 sub-unit, SEQ ID NOs: 3-4; approx. 34 kDa), isola; experiment: dissociation constant by carbon-dextran technique with radiolabelled ligand, Scatchard plot; details: comparison with E-FABP (Siegenthaler et al. 1994)
Protocol: These dissociation constants are obtained by carrying out measurements using the carbon-dextran technique. This technique is as follows: aliquot portions of 0.5 μg of heteromer in solution in 100 μl of Tris buffer (50 mM Tris/HCl, 25 mM NaCl, 2.5 mM EDTA, 1 mM DTT at pH 7.5) containing 0.5% of gelatin and 1% of DMSO are incubated for 1 hour at 37° C. in the presence of increasing quantities of radiolabelled ligand, i.e, 0-10 μM for the oleic acid and the arachidonic acid. Then, each aliquot portion is treated with 50 μl a mixture of carbon-dextran T40® (5% and 0.05% respectively) at 0° C. for 10 minutes, then centrifuged at 10000 g and the radioactivity of the supernatant is measured. A saturation curve is established, and the Kd is calculated using the Scatchard plot.
as §1
The purification process of the heteromer that is implemented consists specifically of the following steps: approximately 5 g of psoriasis scales are homogenized in 15 ml of Tris/HCl buffer using a homogenizer (Polytron) then, the mixture is centrifuged at 100000 g for 1 hour at 4° C. The pellet is collected and suspended in 5 ml of the same buffer and centrifuged at 10000 g. The supernatant is eliminated. […]

[5] = molecular target: T3, MRP14 (migration inhibitory factor …); experiment: gel filtration (34 kDa, non-denaturing) against SDS-PAGE of the purified heteromer
Protocol: The fractions that co-elute with the radioactive peak are gathered, dialyzed through a 20 mM Tris/HCl buffer, pH of 8.0 and the solution is concentrated. This solution is passed through a […] ion exchange column (Resource Q) balanced with the last buffer. The elution in the form of a gradient is performed with this Tris buffer containing 0.5M of NaCl. In the same way as above, the column has been standardized and only the proteins that co-elute with the radioactive peak are gathered, dialyzed through a 100 mM sodium phosphate buffer with a pH of 7.0 and concentrated The last purification step is carried out on a filtration column (Superose 12) balanced with the phosphate buffer. The protein peak that elutes at 34 kDa corresponds to the purified heteromer.

Row | Molecule | affinity for fatty acids (in words) [2] | other results
1 | CCCCC/C=C\C/C=C\C/C=C\C/C=C\CCCC(=O)O [arachidonic acid] | weak or nonexistent affinity | radioactive peak of ligand-heteromer complex, ratio arachidonic acid to oleic acid ([1]; 600 nM radiolabelled arachidonic acid vs 600 nM radiolabelled oleic acid, peak at 34 kDa): 1.5 times; quantity of arachidonic acid bound relative to oleic acid ([1]; up to, general statement): up to 1.5 times
2 | CCCCC/C=C\C/C=C\CCCCCCCC(=O)O [linoleic acid] | strong affinity | binding (in words) [3]: binds
3 | CC/C=C\C/C=C\C/C=C\CCCCCCCC(=O)O [linolenic acid] | strong affinity | 
4 | CCCCCCCC/C=C\CCCCCCCC(=O)O [oleic acid] | strong affinity | dissociation constant in relation to oleic acid compared with that of E-FABP for the same ligand [4]: less than that of the E-FABP
5 | CCCCCCCCCCCCCCCCCC(=O)O [stearic acid] | strong affinity | 
6 | MRP8 (migration inhibitory factor related protein 8) (other, Sub-unit of the heteromer, seen by SDS-PAGE of the purified native complex; also called MRP8 sub-unit) MLTELEKALNSIIDVYHKYSLIKGNFHAVYRDDLKKLLETECPQYIRKKGADVWFKELDINTDGAVNFQEFLILVIKMGVAAHKKSHEESHKE |  | binding result [5]: binds
